Marks after values point to notes of the source that are not given here.
What was measured:
[1] = test system: BALB/c mice (AA-induced ear swelling); assay: Murine ear inflammation assay, AA-induced ear swelling; assay type: in vivo, mouse; conditions: 25 mg/kg i/p; for % Change compared with vehicle / Change in ear thickness (mean ± SD, ×0.01 mm): AA, 1 hr post-AA
Description: (§1) Female BALB/c mice (ARC, WA, Australia), weighing 15-21 g, and maintained on an isoflavone-free diet (Gordon's Specialty Stock Foods, Yanderra, NSW) for at least seven days, were randomised into test groups of five or six. To reduce animal use, mice had ear swelling induced by applying AA (Sigma, Steinheim, Germany) initially, and then by phorbol 12-Myristate 13-acetate (PMA—Sigma, Mo., USA) one week later.
(§2) Test compounds were dissolved in polyethylene glycol (PEG) 400 (Sigma, St. Louis, Mo., USA):phosphate buffered saline 1:1 and injected intraperitoneally (i/p) at a dose of 25 mg/kg either 30 min prior to AA treatment or 1 hr prior to PMA treatment. Mice were anaesthetised using isoflurane (Veterinary Companies of Australia Pty Ltd, NSW, Australia) and baseline thickness of both ears was measured using a spring micrometer (Interapid, Zurich, Switzerland). Each mouse received a total of 20 μL of either AA in ethanol (50 mg/ml) or PMA in acetone (0.2 mg/ml) applied to the inner and outer surfaces of each pinna (i.e. 5 μL per ear surface). Mice were anaesthetised again to remeasure the ears at 1 hr post-AA application or at 5 hr post-PMA application.
(§3) The difference in ear swelling pre- and post-application of inflammogen for each ear was calculated. The difference in mean swelling of each test group compared to the group given vehicle alone was calculated using a two-tailed unpaired t-test (Prism 4, Graphpad Software).

red blood cells = assay: Peroxyl radical (AAPH)-induced red blood cell lysis; assay type: cell-based; conditions: 10 μM; AAPH-induced RBC lysis; vehicle 40.0
Description: Freshly collected heparinised venous blood (10 ml, on ice) was aliquotted into 1.8 ml sterile eppendorf tubes and centrifuged for 10 minutes at 2600 rpm at 4° C. Plasma and buffy coat layers were removed (approximately 900 μl) and packed red blood cells (RBC) were then washed by the addition of 900 μl of sterile, ice cold PBS. This washing procedure was repeated twice. Packed RBC were resuspended by the addition of 900 μl of ice-cold, sterile PBS (and termed RBC stock). RBC stocks were stored at 4° C. for a maximum of three days. All working suspensions of RBC were prepared fresh daily by diluting 200 μl of RBC stock into 10 ml of ice-cold, sterile PBS and 50 μl added to each well.
The free radical generator AAPH (1.22 gm) was dissolved in 7.5 ml of PBS to yield a 4× stock at 600 mM and 50 μl aliquots (final concentration of 150 mM) were then added to each well to initiate the lysis assay. Test compounds were examined at […] (in DMSO 0.25%). Appropriate controls were included in each experiment. Peroxyl-induced RBC lysis assays were performed in 96-flat bottom well microtitre plates with a total volume of 200 μl per well. Turbidity of RBC suspensions were monitored using a Tecan microplate reader at 690 nm (37° C.) with gentle vortexing. Assays were performed in quadruplicate and readings were taken every 5 minutes over 5 hours. RBC lysis curves were constructed by plotting absorbance (mean of 4 readings) against time. Time to half-lysis was calculated by taking the highest absorbance reading (no lysis) and the lowest absorbance reading (maximum lysis). The sum of these two readings divided by two gave the absorbance at half-lysis. Simple regression analysis was used to calculate the time at which half-lysis absorbance occurred.

superoxide = assay: Extracellular superoxide production by differentiated HL-60 cells (cytochrome C reduction); assay type: cell-based, human; conditions: for extracellular superoxide production, % change compared with vehicle control: HL-60, PMA; for inhibition of superoxide production: Cpd. 16 at 100 μM
Description: The human promyeloblast cell line HL-60 can be differentiated into neutrophil-like cells, which then produce ROS when activated. HL-60 cells were grown in RPMI-1640 medium containing glutamine and supplemented with FBS 20%. They were differentiated by culturing for 6 days in medium containing DMSO 1.25%, after which they were washed, centrifuged and incubated at 37° C. for 5 minutes with cytochalasin before transfer to PBS containing cytochrome C and test compound. After a 5 minute incubation, phorbol myristate acetate (PMA) was added to activate the HL-60 cells, which were then incubated for a further 10 minutes. The cells were then pelleted by centrifugation, and the change in absorbance due to reduction of cytochrome C in the cell-free supernatant was measured at 550 nm. The increase in absorbance is a direct measure of extracellular superoxide production by the cells, and a reduction in those samples incubated with test compounds would indicate anti-oxidant activity. Samples were examined in duplicate, and the assay done three times.

HUVSMC = assay: Proliferation of human umbilical vein smooth muscle cells; assay type: cell-based; conditions: VSMC, 120 h, 5 days
Description: Human umbilical vein smooth muscle cells (HUVSMC), tissue explants from a neonate (HRI— passage 2), were seeded into 96 well plates at 1×10^3 cells per well, and allowed to attach for 24 hours. They were then washed twice and incubated in medium without FBS for 24-48 hours to serum-starve them. Test compounds were prepared in medium without FBS and added to the plates and incubated for one hour. Medium with FBS was added to give a final concentration of 10% and the plates incubated for 5 days until the controls were just confluent. Final analogue concentration was therefore either a series from 150 μM to 1.2 μM, or single concentrations of 10 μM. The difference in absorbance between treated cells and untreated cells was calculated using the formula, test/control*100, to obtain the percentage change caused by the test compound. As well, an IC50 for each compound was calculated.

TNFα = assay: LPS-induced TNFα synthesis in RAW 264.7 murine macrophages; assay type: cell-based, mouse; conditions: 10 μM; RAW 264.7, LPS
Description: Subconfluent RAW 264.7 cells were seeded into 24-well plates at 5×10^5 cells per well and allowed to adhere for 1 hr. Cells were then treated either test compound (in 0.025% DMSO) or vehicle alone, and incubated for 1 hr. LPS 50 ng/ml (LPS—Sigma-Aldrich) was then added. After incubation for 16 hrs, culture media was collected and stored at −80° C. TNFα measurement using an ELISA (Becton Dickinson).

[2] = test system: BALB/c mice (PMA-induced ear swelling); assay: Murine ear inflammation assay, PMA-induced ear swelling; assay type: in vivo, mouse; conditions: 25 mg/kg i/p; for % Change compared with vehicle / Change in ear thickness (mean ± SD, ×0.01 mm): PMA, 5 hr post-PMA
Description: as §1, §2, §3

HCASMC = assay: Proliferation of human coronary artery smooth muscle cells; assay type: cell-based; conditions: VSMC, 120 h, five days, MTT
Description: Human coronary smooth muscle cells (HCASMC—Clonetics) supplied at passage 3 and used for up to a further 12 population doublings, were seeded into 96 well plates at a low seeding rate, 2-5×10^3 cells per well and allowed to attach and proliferate to 30-40% confluence for 24-48 hours. Prior to inoculation the medium was changed to fresh growth medium. Test compounds were prepared in growth medium and added to plates so that the final concentrations were a series from 150 μM to 0.6 μM. The cells were incubated for five days, cell number assessed using MTT and an IC50 for each compound calculated.

Cc1c(O)ccc2c1OCC(c1cccc(O)c1)=C2 [Cpd. 14, 3′,7-Dihydroxy-8-methylisoflav-3-ene]
ear oedema caused by the application of AA [1]: significant reduction
% Change compared with vehicle [1]: −34%
Change in ear thickness (mean ± SD, ×0.01 mm) [1]: 10.7 ± 2.9 ×0.01 mm
Time taken to reach half-lysis (red blood cells): 134.7 min
extracellular superoxide production, % change compared with vehicle control (superoxide; 10 μM): −20%
extracellular superoxide production, % change compared with vehicle control (superoxide; 100 μM): −20%
inhibition of superoxide production (superoxide): trend towards inhibition
IC50 (HUVSMC): 64 µM
synthesis of TNFα (TNFα): tended to do so
% Change compared with vehicle [2]: +7%
Change in ear thickness (mean ± SD, ×0.01 mm) [2]: 27.9 ± 3.8 ×0.01 mm
IC50 (HCASMC): 54 µM

COc1ccc(C2=Cc3ccc(O)cc3OC2)cc1OC [Cpd. 18, 7-Hydroxy-3′,4′-dimethoxyisoflav-3-ene]
ear oedema caused by the application of AA [1]: significant reduction
% Change compared with vehicle [1]: −40%
Change in ear thickness (mean ± SD, ×0.01 mm) [1]: 8.4 ± 3.7 ×0.01 mm
Time taken to reach half-lysis (red blood cells): 107.7 min
extracellular superoxide production, % change compared with vehicle control (superoxide; 10 μM): −24%
extracellular superoxide production, % change compared with vehicle control (superoxide; 100 μM): −36* %
IC50 (HUVSMC): 140 µM
synthesis of TNFα (TNFα): inhibited
% Change compared with vehicle [2]: −1%
Change in ear thickness (mean ± SD, ×0.01 mm) [2]: 29.6 ± 2.7 ×0.01 mm
IC50 (HCASMC): 88 µM

Oc1ccc(C2=Cc3ccc(O)c(Br)c3OC2)cc1 [Cpd. 20, 4′,7-Dihydroxy-8-bromoisoflav-3-ene]
% Change compared with vehicle [1]: −11%
Change in ear thickness (mean ± SD, ×0.01 mm) [1]: 14.4 ± 6.1 ×0.01 mm
Time taken to reach half-lysis (red blood cells): 122.0 min
extracellular superoxide production, % change compared with vehicle control (superoxide; 10 μM): 6%
extracellular superoxide production, % change compared with vehicle control (superoxide; 100 μM): 28%
inhibition of superoxide production (superoxide): not active
IC50 (HUVSMC): 32 µM
synthesis of TNFα (TNFα): tended to do so
% Change compared with vehicle [2]: +4%
Change in ear thickness (mean ± SD, ×0.01 mm) [2]: 22.7 ± 4.7 ×0.01 mm
IC50 (HCASMC): 27 µM

COc1ccc(C2=Cc3ccc(O)c(C)c3OC2)cc1OC [Cpd. 19, 7-Hydroxy-3′,4′-dimethoxy-8-methylisoflav-3-ene]
ear oedema caused by the application of AA [1]: significant reduction
% Change compared with vehicle [1]: −34%
Change in ear thickness (mean ± SD, ×0.01 mm) [1]: 9.3 ± 3.9 ×0.01 mm
Time taken to reach half-lysis (red blood cells): 111.6 min
extracellular superoxide production, % change compared with vehicle control (superoxide; 10 μM): −11%
extracellular superoxide production, % change compared with vehicle control (superoxide; 100 μM): 16%
inhibition of superoxide production (superoxide): trend towards inhibition
IC50 (HUVSMC): 34 µM
synthesis of TNFα (TNFα): inhibited
inflammation caused by the application of PMA [2]: significantly inhibited
% Change compared with vehicle [2]: −26%
Change in ear thickness (mean ± SD, ×0.01 mm) [2]: 22.1 ± 3.9 ×0.01 mm
IC50 (HCASMC): 63 µM

COc1cccc(C2=Cc3ccc(O)cc3OC2)c1 [Cpd. 16, 7-Hydroxy-3′-methoxyisoflav-3-ene]
ear oedema caused by the application of AA [1]: significant reduction
% Change compared with vehicle [1]: −29%
Change in ear thickness (mean ± SD, ×0.01 mm) [1]: 11.6 ± 2.9 ×0.01 mm
Time taken to reach half-lysis (red blood cells): 164.3 min
extracellular superoxide production, % change compared with vehicle control (superoxide; 10 μM): −22%
extracellular superoxide production, % change compared with vehicle control (superoxide; 100 μM): −57* %
inhibition of superoxide production (superoxide): significantly inhibited
IC50 (HUVSMC): 63 µM
synthesis of TNFα (TNFα): tended to do so
% Change compared with vehicle [2]: −11%
Change in ear thickness (mean ± SD, ×0.01 mm) [2]: 23.3 ± 4.5 ×0.01 mm
IC50 (HCASMC): 118 µM

Oc1ccc2c(c1)OCC(c1ccc(Br)cc1)=C2 [Cpd. 21, 4′-Bromo-7-hydroxyisoflav-3-ene]
% Change compared with vehicle [1]: −11%
Change in ear thickness (mean ± SD, ×0.01 mm) [1]: 14.4 ± 5.1 ×0.01 mm
Time taken to reach half-lysis (red blood cells): 140.8 min
extracellular superoxide production, % change compared with vehicle control (superoxide; 10 μM): −10%
extracellular superoxide production, % change compared with vehicle control (superoxide; 100 μM): −11%
inhibition of superoxide production (superoxide): trend towards inhibition
IC50 (HUVSMC): 8 µM
synthesis of TNFα (TNFα): inhibited
% Change compared with vehicle [2]: +24%
Change in ear thickness (mean ± SD, ×0.01 mm) [2]: 27.2 ± 8.6 ×0.01 mm
IC50 (HCASMC): 29 µM

Reference: patent US20090233999A1, “COMPOSITIONS AND THERAPEUTIC METHODS INVOLVING ISOFLAVONES AND ANALOGUES THEREOF” (NOVOGEN RESEARCH PTY LTD, priority 1999, published 2009)
